Test results taken from ChEMBL document CHEMBL4507278 (2021).

Experiments:
[1] = biological target: Serine/threonine-protein kinase MAK (Homo sapiens) (UniProt P20794); conditions: Compound concentration 1000.0 nM
[2] = biological target: Phosphatidylinositol 4-phosphate 3-kinase C2 domain-containing subunit beta (Homo sapiens) (UniProt O00750); conditions: Compound concentration 1000.0 nM
[3] = biological target: Serine/threonine-protein kinase BRSK1 (Homo sapiens) (UniProt Q8TDC3); conditions: Compound concentration 1000.0 nM
[4] = biological target: Serine/threonine-protein kinase ULK3 (Homo sapiens) (UniProt Q6PHR2); conditions: Compound concentration 1000.0 nM
[5] = biological target: Interleukin-1 receptor-associated kinase 3 (Homo sapiens) (UniProt Q9Y616); conditions: Compound concentration 1000.0 nM
[6] = biological target: Vascular endothelial growth factor receptor 2 (Homo sapiens) (UniProt P35968); conditions: Compound concentration 1000.0 nM
[7] = biological target: Tyrosine-protein kinase SYK (Homo sapiens) (UniProt P43405); conditions: Compound concentration 1000.0 nM
[8] = biological target: Calcium/calmodulin-dependent protein kinase type 1B (Homo sapiens) (UniProt Q6P2M8); conditions: Compound concentration 1000.0 nM
[9] = biological target: Mast/stem cell growth factor receptor Kit (Homo sapiens) (UniProt P10721); conditions: Compound concentration 1000.0 nM
[10] = biological target: Epidermal growth factor receptor (Homo sapiens) (UniProt P00533); conditions: Compound concentration 1000.0 nM
[11] = biological target: Serine/threonine-protein kinase Nek7 (Homo sapiens) (UniProt Q8TDX7); conditions: Compound concentration 1000.0 nM
[12] = test system: Phosphatidylinositol 4,5-bisphosphate 3-kinase catalytic subunit alpha isoform (Homo sapiens), P42336 [M1043I]; conditions: Compound concentration 1000.0 nM
[13] = biological target: Tyrosine-protein kinase ABL2 (Homo sapiens) (UniProt P42684); conditions: Compound concentration 1000.0 nM
[14] = test system: Epidermal growth factor receptor (Homo sapiens), P00533 [L858R,T790M]; conditions: Compound concentration 1000.0 nM
[15] = biological target: Cyclin-dependent kinase 5 (Homo sapiens) (UniProt Q00535); conditions: Compound concentration 1000.0 nM
[16] = biological target: Serine/threonine-protein kinase 36 (Homo sapiens) (UniProt Q9NRP7); conditions: Compound concentration 1000.0 nM
[17] = biological target: Ribosomal protein S6 kinase alpha-5 (Homo sapiens) (UniProt O75582); conditions: Compound concentration 1000.0 nM
[18] = biological target: Mitogen-activated protein kinase 12 (Homo sapiens) (UniProt P53778); conditions: Compound concentration 1000.0 nM
Mitogen-activated protein kinase 12 (Homo sapiens), sequence (P53778 whole entry): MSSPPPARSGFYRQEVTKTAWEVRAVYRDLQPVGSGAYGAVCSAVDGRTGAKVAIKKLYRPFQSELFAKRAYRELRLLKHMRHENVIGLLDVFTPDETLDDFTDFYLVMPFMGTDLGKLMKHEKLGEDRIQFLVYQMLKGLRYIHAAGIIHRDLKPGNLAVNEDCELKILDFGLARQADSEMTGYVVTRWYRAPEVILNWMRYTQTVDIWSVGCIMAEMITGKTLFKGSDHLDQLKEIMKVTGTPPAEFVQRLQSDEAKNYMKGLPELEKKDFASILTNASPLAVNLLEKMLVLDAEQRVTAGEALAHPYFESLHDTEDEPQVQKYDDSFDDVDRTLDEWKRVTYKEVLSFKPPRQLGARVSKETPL

[19] = biological target: Dual specificity mitogen-activated protein kinase kinase 1 (Homo sapiens) (UniProt Q02750); conditions: Compound concentration 1000.0 nM
[20] = biological target: Serine/threonine-protein kinase 25 (Homo sapiens) (UniProt O00506); conditions: Compound concentration 1000.0 nM
[21] = biological target: 5-hydroxytryptamine receptor 2B (Homo sapiens) (UniProt P41595); conditions: Compound concentration 10.0 uM
[22] = biological target: Phosphatidylinositol 4-phosphate 5-kinase type-1 gamma (Homo sapiens) (UniProt O60331); conditions: Compound concentration 1000.0 nM
[23] = biological target: Casein kinase II subunit alpha (Homo sapiens) (UniProt P68400); conditions: Compound concentration 1000.0 nM
Casein kinase II subunit alpha (Homo sapiens), sequence (P68400 whole entry, looked up): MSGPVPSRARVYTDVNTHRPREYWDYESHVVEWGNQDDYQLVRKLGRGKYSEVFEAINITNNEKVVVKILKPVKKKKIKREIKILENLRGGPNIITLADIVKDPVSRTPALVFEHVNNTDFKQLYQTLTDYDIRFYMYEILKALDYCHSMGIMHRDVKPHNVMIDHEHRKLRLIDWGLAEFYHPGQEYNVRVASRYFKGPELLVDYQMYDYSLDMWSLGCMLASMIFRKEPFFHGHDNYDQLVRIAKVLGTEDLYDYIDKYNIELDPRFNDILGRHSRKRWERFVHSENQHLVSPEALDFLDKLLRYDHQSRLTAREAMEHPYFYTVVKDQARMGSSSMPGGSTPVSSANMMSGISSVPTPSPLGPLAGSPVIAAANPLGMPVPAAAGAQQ

[24] = biological target: Tyrosine-protein kinase JAK1 (Homo sapiens) (UniProt P23458); conditions: Compound concentration 1000.0 nM
Tyrosine-protein kinase JAK1 (Homo sapiens), sequence (P23458 whole entry): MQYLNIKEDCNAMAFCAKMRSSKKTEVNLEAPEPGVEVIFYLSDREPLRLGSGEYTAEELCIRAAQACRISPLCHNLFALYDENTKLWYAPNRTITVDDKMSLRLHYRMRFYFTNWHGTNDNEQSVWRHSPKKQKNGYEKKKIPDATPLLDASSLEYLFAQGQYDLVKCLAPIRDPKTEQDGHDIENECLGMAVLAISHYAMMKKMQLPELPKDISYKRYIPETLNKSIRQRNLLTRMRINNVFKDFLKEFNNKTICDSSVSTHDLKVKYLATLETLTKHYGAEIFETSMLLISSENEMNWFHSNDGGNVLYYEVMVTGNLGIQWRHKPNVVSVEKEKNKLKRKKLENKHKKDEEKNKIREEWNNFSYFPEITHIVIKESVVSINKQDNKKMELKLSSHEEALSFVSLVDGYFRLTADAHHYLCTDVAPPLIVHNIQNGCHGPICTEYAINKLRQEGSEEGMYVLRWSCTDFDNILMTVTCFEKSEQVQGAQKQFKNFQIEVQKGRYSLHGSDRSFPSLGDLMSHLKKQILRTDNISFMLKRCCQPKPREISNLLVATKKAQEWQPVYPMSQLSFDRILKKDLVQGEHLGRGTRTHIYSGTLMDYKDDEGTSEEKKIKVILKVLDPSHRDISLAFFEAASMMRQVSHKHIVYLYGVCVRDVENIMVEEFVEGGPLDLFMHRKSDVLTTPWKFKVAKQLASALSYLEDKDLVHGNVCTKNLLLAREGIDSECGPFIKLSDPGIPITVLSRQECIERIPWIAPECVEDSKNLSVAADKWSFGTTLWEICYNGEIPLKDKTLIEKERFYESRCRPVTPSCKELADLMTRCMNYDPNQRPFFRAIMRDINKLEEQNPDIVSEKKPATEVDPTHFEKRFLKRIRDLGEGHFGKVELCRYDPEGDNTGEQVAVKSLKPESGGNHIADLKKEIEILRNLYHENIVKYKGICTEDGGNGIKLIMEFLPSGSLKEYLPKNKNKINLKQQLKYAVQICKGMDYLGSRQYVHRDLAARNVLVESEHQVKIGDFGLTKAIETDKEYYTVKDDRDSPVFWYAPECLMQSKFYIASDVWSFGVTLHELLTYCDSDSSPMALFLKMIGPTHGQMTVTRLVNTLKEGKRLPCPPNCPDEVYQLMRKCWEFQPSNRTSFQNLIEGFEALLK

[25] = biological target: Tyrosine-protein kinase Mer (Homo sapiens) (UniProt Q12866); conditions: Compound concentration 1000.0 nM
[26] = biological target: G protein-coupled receptor kinase 3 (Homo sapiens) (UniProt P35626); conditions: Compound concentration 1000.0 nM
G protein-coupled receptor kinase 3 (Homo sapiens), sequence (P35626 whole entry): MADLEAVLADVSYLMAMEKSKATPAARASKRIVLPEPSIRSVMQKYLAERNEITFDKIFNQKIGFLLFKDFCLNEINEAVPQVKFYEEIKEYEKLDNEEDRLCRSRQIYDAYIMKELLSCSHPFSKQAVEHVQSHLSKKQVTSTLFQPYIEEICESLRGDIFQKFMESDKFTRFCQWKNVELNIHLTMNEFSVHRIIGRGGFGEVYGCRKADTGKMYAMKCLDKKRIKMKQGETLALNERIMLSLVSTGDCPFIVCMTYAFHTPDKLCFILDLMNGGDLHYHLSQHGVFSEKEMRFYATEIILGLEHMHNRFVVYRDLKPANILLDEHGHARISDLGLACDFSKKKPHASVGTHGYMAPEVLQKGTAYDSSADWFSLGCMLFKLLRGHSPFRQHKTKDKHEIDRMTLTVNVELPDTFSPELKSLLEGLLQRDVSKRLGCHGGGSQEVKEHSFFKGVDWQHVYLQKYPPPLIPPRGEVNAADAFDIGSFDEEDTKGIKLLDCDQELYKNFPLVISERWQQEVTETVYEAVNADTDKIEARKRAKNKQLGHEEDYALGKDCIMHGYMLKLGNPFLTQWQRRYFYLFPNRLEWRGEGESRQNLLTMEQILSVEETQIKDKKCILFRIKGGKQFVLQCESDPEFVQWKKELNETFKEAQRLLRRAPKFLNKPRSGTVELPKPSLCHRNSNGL

[27] = biological target: Ribosomal protein S6 kinase alpha-4 (Homo sapiens) (UniProt O75676); conditions: Compound concentration 1000.0 nM
[28] = biological target: Serine/threonine-protein kinase 38-like (Homo sapiens) (UniProt Q9Y2H1); conditions: Compound concentration 1000.0 nM
[29] = biological target: Ribosomal protein S6 kinase alpha-2 (Homo sapiens) (UniProt Q15349); conditions: Compound concentration 1000.0 nM
[30] = biological target: Protein kinase C iota type (Homo sapiens) (UniProt P41743); conditions: Compound concentration 1000.0 nM
[31] = biological target: Mitogen-activated protein kinase kinase kinase 4 (Homo sapiens) (UniProt Q9Y6R4); conditions: Compound concentration 1000.0 nM
[32] = biological target: Sodium-dependent serotonin transporter (Homo sapiens) (UniProt P31645); conditions: Compound concentration 10.0 uM
[33] = biological target: Fibroblast growth factor receptor 2 (Homo sapiens) (UniProt P21802); conditions: Compound concentration 1000.0 nM
[34] = biological target: Ephrin type-A receptor 4 (Homo sapiens) (UniProt P54764); conditions: Compound concentration 1000.0 nM
[35] = biological target: 5-hydroxytryptamine receptor 1B (Homo sapiens) (UniProt P28222); conditions: Compound concentration 10.0 uM
5-hydroxytryptamine receptor 1B (Homo sapiens), sequence (P28222 whole entry): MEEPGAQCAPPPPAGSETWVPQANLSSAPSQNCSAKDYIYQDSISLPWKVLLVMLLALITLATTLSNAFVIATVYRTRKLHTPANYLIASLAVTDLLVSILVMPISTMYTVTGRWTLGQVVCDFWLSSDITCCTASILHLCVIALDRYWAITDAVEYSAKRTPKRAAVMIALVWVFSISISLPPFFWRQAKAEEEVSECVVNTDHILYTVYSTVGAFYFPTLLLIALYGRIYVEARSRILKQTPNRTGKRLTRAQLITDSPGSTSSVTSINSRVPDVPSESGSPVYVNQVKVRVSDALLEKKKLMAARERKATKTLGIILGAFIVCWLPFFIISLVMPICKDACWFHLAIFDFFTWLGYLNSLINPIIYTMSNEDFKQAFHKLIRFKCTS

[36] = biological target: Homeodomain-interacting protein kinase 3 (Homo sapiens) (UniProt Q9H422); conditions: Compound concentration 1000.0 nM
[37] = biological target: 5-hydroxytryptamine receptor 1D (Homo sapiens) (UniProt P28221); conditions: Compound concentration 10.0 uM
[38] = biological target: Serine/threonine-protein kinase PAK 6 (Homo sapiens) (UniProt Q9NQU5); conditions: Compound concentration 1000.0 nM
[39] = biological target: Serine/threonine-protein kinase pim-1 (Homo sapiens) (UniProt P11309); conditions: Compound concentration 1000.0 nM
[40] = biological target: Serine/threonine-protein kinase D3 (Homo sapiens) (UniProt O94806); conditions: Compound concentration 1000.0 nM
Serine/threonine-protein kinase D3 (Homo sapiens), sequence (O94806 whole entry): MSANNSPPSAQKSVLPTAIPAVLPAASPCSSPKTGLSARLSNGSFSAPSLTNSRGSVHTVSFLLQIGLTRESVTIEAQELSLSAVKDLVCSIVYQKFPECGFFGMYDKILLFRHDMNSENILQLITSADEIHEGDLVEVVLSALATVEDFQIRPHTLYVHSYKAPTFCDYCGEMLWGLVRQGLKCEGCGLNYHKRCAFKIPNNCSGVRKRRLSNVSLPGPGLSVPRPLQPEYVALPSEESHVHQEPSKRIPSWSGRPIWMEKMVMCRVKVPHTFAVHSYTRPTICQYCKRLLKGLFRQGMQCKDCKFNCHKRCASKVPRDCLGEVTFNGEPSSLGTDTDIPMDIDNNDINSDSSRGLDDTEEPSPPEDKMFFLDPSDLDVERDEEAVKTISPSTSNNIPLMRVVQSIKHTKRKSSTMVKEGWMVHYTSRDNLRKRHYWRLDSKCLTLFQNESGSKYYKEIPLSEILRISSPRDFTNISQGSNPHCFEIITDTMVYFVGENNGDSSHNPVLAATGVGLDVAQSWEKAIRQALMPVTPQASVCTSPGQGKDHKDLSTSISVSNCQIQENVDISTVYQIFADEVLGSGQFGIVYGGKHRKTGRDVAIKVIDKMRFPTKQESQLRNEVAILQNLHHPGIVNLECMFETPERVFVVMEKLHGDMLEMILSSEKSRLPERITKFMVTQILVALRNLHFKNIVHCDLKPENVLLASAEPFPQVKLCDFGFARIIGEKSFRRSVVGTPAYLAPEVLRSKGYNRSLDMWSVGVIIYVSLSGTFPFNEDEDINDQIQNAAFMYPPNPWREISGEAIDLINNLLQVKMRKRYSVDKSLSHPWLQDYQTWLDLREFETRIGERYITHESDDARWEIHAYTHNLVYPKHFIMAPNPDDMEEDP

[41] = test system: Epidermal growth factor receptor (Homo sapiens), P00533 [UNDEFINED MUTATION]; conditions: Compound concentration 1000.0 nM
[42] = biological target: Mitogen-activated protein kinase 14 (Homo sapiens) (UniProt Q16539); conditions: Compound concentration 1000.0 nM
Mitogen-activated protein kinase 14 (Homo sapiens), sequence (Q16539 whole entry): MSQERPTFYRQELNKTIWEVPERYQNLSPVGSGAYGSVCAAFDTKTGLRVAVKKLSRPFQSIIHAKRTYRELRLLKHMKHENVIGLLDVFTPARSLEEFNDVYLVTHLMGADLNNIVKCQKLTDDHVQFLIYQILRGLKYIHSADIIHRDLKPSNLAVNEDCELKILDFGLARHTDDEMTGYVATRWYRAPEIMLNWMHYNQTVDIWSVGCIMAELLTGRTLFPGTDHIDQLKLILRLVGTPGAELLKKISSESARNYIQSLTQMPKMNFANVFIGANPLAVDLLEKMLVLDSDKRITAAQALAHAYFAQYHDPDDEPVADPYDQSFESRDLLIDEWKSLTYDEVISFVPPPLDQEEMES

[43] = biological target: Dual specificity protein kinase CLK4 (Homo sapiens) (UniProt Q9HAZ1); conditions: Compound concentration 1000.0 nM
[44] = biological target: Tyrosine-protein kinase TXK (Homo sapiens) (UniProt P42681); conditions: Compound concentration 1000.0 nM
[45] = biological target: Serine/threonine-protein kinase Nek2 (Homo sapiens) (UniProt P51955); conditions: Compound concentration 1000.0 nM

Serine/threonine-protein kinase MAK (Homo sapiens), sequence (P20794 whole entry, the tested form may be a part): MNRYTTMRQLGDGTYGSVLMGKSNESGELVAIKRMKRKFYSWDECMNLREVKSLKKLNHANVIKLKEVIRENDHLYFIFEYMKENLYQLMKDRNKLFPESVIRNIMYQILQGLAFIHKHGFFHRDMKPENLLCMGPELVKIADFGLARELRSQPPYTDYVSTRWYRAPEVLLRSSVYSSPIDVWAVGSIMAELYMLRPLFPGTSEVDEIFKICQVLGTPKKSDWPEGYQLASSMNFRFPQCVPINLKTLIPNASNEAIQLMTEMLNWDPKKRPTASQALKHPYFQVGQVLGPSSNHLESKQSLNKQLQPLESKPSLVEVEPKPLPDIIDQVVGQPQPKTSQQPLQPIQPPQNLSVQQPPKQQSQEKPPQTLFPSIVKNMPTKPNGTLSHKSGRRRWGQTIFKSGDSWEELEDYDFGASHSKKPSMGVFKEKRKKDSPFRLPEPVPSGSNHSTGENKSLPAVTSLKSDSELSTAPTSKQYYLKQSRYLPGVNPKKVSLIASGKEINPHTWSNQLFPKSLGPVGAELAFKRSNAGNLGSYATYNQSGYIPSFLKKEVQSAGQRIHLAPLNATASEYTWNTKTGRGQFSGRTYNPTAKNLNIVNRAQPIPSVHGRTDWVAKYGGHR

## CS(=O)(=O)NCC[C@H](NC(=O)c1cncc2c1cnn2-c1ccc(F)cc1)c1ccnc(S(C)(=O)=O)c1 [BI 9307]
[1]
  residual activity: 100%
[2]
  residual activity: 78%
[3]
  residual activity: 99%
[4]
  residual activity: 100%
[5]
  residual activity: 89%
[6]
  residual activity: 100%
[7]
  residual activity: 100%
[8]
  residual activity: 85%
[9]
  residual activity: 100%
[10]
  residual activity: 84%
[11]
  residual activity: 90%
[12]
  residual activity: 95%
[13]
  residual activity: 93%
[14]
  residual activity: 78%
[15]
  residual activity: 100%
[16]
  residual activity: 100%
[17]
  residual activity: 88%
[18]
  residual activity: 100%
[19]
  residual activity: 100%
[20]
  residual activity: 78%
[21]
  inhibition: -5.9%
[22]
  residual activity: 78%
[23]
  residual activity: 100%
[24]
  residual activity: 100%
[25]
  residual activity: 100%
[26]
  residual activity: 100%
[27]
  residual activity: 85%
[28]
  residual activity: 50%
[29]
  residual activity: 100%
[30]
  residual activity: 100%
[31]
  residual activity: 84%
[32]
  inhibition: -7.52%
[33]
  residual activity: 100%
[34]
  residual activity: 100%
[35]
  inhibition: 47.7%
[36]
  residual activity: 100%
[37]
  inhibition: 38.9%
[38]
  residual activity: 100%
[39]
  residual activity: 96%
[40]
  residual activity: 92%
[41]
  residual activity: 100%
[42]
  residual activity: 100%
[43]
  residual activity: 85%
[44]
  residual activity: 84%
[45]
  residual activity: 97%

## CS(=O)(=O)c1cc(C2(NC(=O)c3cncc4c3cnn4-c3ccc(F)cc3)CC2)ccn1 [BI 639667]
[1]
  residual activity: 100%
[2]
  residual activity: 84%
[3]
  residual activity: 74%
[4]
  residual activity: 100%
[5]
  residual activity: 59%
[6]
  residual activity: 77%
[7]
  residual activity: 100%
[8]
  residual activity: 78%
[9]
  residual activity: 100%
[10]
  residual activity: 100%
[11]
  residual activity: 100%
[12]
  residual activity: 93%
[13]
  residual activity: 95%
[14]
  residual activity: 81%
[15]
  residual activity: 100%
[16]
  residual activity: 100%
[17]
  residual activity: 100%
[18]
  residual activity: 100%
[19]
  residual activity: 81%
[20]
  residual activity: 100%
[21]
  inhibition: 22.1%
[22]
  residual activity: 95%
[23]
  residual activity: 64%
[24]
  residual activity: 83%
[25]
  residual activity: 100%
[26]
  residual activity: 100%
[27]
  residual activity: 85%
[28]
  residual activity: 34%
[29]
  residual activity: 100%
[30]
  residual activity: 100%
[31]
  residual activity: 87%
[32]
  inhibition: -2.94%
[33]
  residual activity: 100%
[34]
  residual activity: 100%
[35]
  inhibition: 13.5%
[36]
  residual activity: 85%
[37]
  inhibition: 14.5%
[38]
  residual activity: 96%
[39]
  residual activity: 100%
[40]
  residual activity: 97%
[41]
  residual activity: 100%
[42]
  residual activity: 100%
[43]
  residual activity: 100%
[44]
  residual activity: 89%
[45]
  residual activity: 93%
